Several values for one entry are separate records, joined by “and”; a condition that tells them apart may be missing. Equal values may be shown once.

The test system of assay [1] is souris dépendantes à la morphine. Kind of assay: Naloxone-precipitated withdrawal syndrome (jumping) in morphine-treated mice, repeated 4-day oral treatment. The assay is classed as in vivo. The text has this: (§1) Les expériences ont été réalisées chez des souris mâles Swiss normales ou surrénalectomisées (Charles River, France) d'un poids corporel compris entre 20 et 25 g. Durant les essais, les animaux ont eu libre accès à la nourriture et à l'eau de boisson. Le nombre d'animaux par groupe est de 10 à 13 souris.
(§2) Les antiglucocorticoïdes : • AG1 (17β-hydroxy 11β-(4-diméthylaminophényl) 17α-(prop-1-ynyl) estra 4,9-dièn-3-one), • AG2 (17β-hydroxy 10β-[(4-méthylphényl) méthyl] 17α-(prop-1-ynyl) estra 4,9-dièn-3-one), • AG3 (γ-lactone de l'acide 17β-hydroxy 11β-(4-diméthylaminophényl) 21-méthylène 3-oxo 19-nor 17α-(pregna 4,9-dièn-21-carboxylique) • AG4 10β-benzyl 17β-hydroxy 17α-(prop-1-ynyl) estra 4,9(11)-dièn-3-one • AG5 11β-[4-(diméthylamino) phényl] 17α-hydroxy 17β-(3-hydroxypropyl) 13α-méthyl gona-4,9-dièn-3-one (onapristone) • AG6 11β-[4-(diméthylamino) phényl] 17β-hydroxy 17α-(3-hydroxy-1-propényl) estra-4,9-dièn-3-one (lilopristone) • AG7 17α-acétoxy 11β-[4-(diméthylamino) phényl] 19-nor pregna 4,9-dièn-3,20-dione • et l'antiprogestérone AP1 (17R 11β-[4-(méthylthio) phényl] spiro (estra-4,9-dièn-17,2'(5'H) furan) 3-one décrit dans WO 87/05908 ex. 3) ont été mis en suspension dans de la méthyl cellusose à 0,5 % et administrés par voie orale (p.o). La morphine a été mise en solution dans du sérum physiologique et administrée par voie sous-cutanée (s.c). Enfin, le chlorhydrate de naloxone a été solubilisé dans de l'eau distillée et injecté par voie intra-péritonéale.
Tous les produits ont été administrées à l'animal sous un volume de 25 ml/kg.
Le premier jour (J1), les animaux ont reçu 5 injections sous-cutanées avec des doses croissantes de morphine réparties dans la matinée et sur le début de l'après midi, à une heure d'intervalle. Les 3 jours suivants (J2, J3, J4), ces mêmes animaux ont été traités le matin par deux administrations de la dose maximale utilisée au jour 1.
Les antiglucocorticoïdes AG1, AG2, AG3, AG4 et AG5 ont été administrées à la dose de 100 mg/kg par voie orale sous forme d'un traitement quotidient effectué 2 heures avant l'administration de morphine et ceci durant 4 jours.
La technique utilisée s'inspire de celle décrite par Way et al. J. Pharmacol. Exp. Ther. (1969), 167 : 1-8 et Huidobro et Maggiolo Acta Physiol. Pharmacol. Latinoam. (1961), 11 : 201-9. Ainsi, l'administration réitérée d'un morphinique induit un phénomène de dépendance physique qui peut être facilement mis en évidence par la précipitation d'un syndrome de sevrage à l'aide d'un antagoniste opiacé tel que la naloxone. Ce syndrome se manifeste, chez la souris sous la forme d'un comportement stéréotypé caractérisé par l'apparition de sauts répétitifs dont le nombre est en relation avec la durée et l'intensité du traitement par le morphinique.
Le sevrage des animaux a été réalisé le quatrième jour; trois heures après le dernier traitement, à l'aide de chlorhydrate de naloxone injecté par voie intrapéritonéale à la dose de 100 mg/kg. Immédiatement après cette injection, les animaux ont été placés individuellement dans des cylindres en plexiglass (hauteur = 40 cm, diamètre = 20 cm). Le nombre de sauts consécutifs au sevrage et effectués par chaque animal a été compté durant une période de 10 minutes.
Les résultats qui figurent dans les tableaux représentent les moyennes des valeurs individuelles assorties de l'erreur standard à la moyenne (m ± esm).

Assay [2] has the same test system. Kind of assay: Naloxone-precipitated withdrawal syndrome (jumping) in morphine-treated mice, acute oral treatment 24 h before withdrawal. Format: in vivo. The note with it: result in words; 100 mg/kg p.o single dose 24 h before naloxone.
Excerpt: as §1
as §2, with “Enfin, le chlorhydrate de naloxone a été solubilisé dans de l'eau distillée et injecté par voie intra-péritonéale.” left out

The mark [3] stands for this setting: Morphine 799 mg/kg s.c (cumulated over 4 days) + compound 4 x 100 mg/kg p.o, naloxone 100 mg/kg ip, normal mice.
Setting [4] is: compound alone, 4 x 100 mg/kg p.o, no morphine, naloxone 100 mg/kg ip on day 4, normal mice.

With `CC#C[C@]1(O)CC[C@H]2[C@@H]3CCC4=CC(=O)CCC4=C3[C@@H](c3ccc(N(C)C)cc3)C[C@@]21C` [AG1, 17β-hydroxy 11β-(4-diméthylaminophényl) 17α-(prop-1-ynyl) estra 4,9-dièn-3-one], the “Nombre de sauts/10 minutes (m ± esm)” value in assay [1] (setting [3]) turned out to be 68 ± 12 sauts/10 minutes; in assay [1] (setting [4]), 0 sauts/10 minutes.
For `CC#CC1(O)CCC2C3CCC4=CC(=O)CCC4(Cc4ccc(C)cc4)C3=CCC21C` (stereo not drawn) [AG2, 17β-hydroxy 10β-[(4-méthylphényl)méthyl] 17α-(prop-1-ynyl) estra 4,9-dièn-3-one], the figures for the “Nombre de sauts/10 minutes (m ± esm)” value in assay [1] (setting [3]) and in assay [1] (setting [4]) were 79 ± 9 sauts/10 minutes and 0 sauts/10 minutes, respectively. Besides, the “effet sur le syndrome de sevrage morphinique” value in assay [2] was “inactive”.
`C=C1C[C@@]2(CC[C@H]3[C@@H]4CCC5=CC(=O)CCC5=C4[C@@H](c4ccc(N(C)C)cc4)C[C@@]32C)OC1=O` [AG3]: the “Nombre de sauts/10 minutes (m ± esm)” value came to 66 ± 7 sauts/10 minutes in assay [1] (setting [3]) and 3 ± 2 sauts/10 minutes in assay [1] (setting [4]).
Turning to `CC#CC1(O)CCC2C3CCC4=CC(=O)CCC4(Cc4ccccc4)C3=CCC21C` (stereo not drawn) [AG4, 10β-benzyl 17β-hydroxy 17α-(prop-1-ynyl) estra 4,9(11)-dièn-3-one], the “Nombre de sauts/10 minutes (m ± esm)” value in assay [1] (setting [3]) is given as 72 ± 7 sauts/10 minutes; in assay [1] (setting [4]) it was 1 ± 1 sauts/10 minutes.
For `CN(C)c1ccc([C@H]2C[C@]3(C)[C@@H](CC[C@]3(O)CCCO)[C@@H]3CCC4=CC(=O)CCC4=C32)cc1` [AG5, 11β-[4-(diméthylamino)phényl] 17α-hydroxy 17β-(3-hydroxypropyl) 13α-méthyl gona-4,9-dièn-3-one], in that order: 68 ± 12 sauts/10 minutes and 1 ± 1 sauts/10 minutes.
`CSc1ccc([C@H]2C[C@@]3(C)[C@@H](CC[C@@]34C=CCO4)[C@@H]3CCC4=CC(=O)CCC4=C32)cc1` [AP1, 17R 11β-[4-(méthylthio)phényl] spiro (estra-4,9-dièn-17,2'(5'H)furan) 3-one, reference compound]: in assay [2], the “effet sur le syndrome de sevrage morphinique” value is reported as “n'a pas modifié de façon significative”.
In the case of `CN1CC[C@]23c4c5ccc(O)c4O[C@H]2[C@@H](O)C=C[C@H]3[C@H]1C5` [Morphine, morphine, reference compound], in assay [1] (in vivo), the “Nombre de sauts/10 minutes (m ± esm)” value is 115 ± 21 sauts/10 minutes and 97 ± 13 sauts/10 minutes and 117 ± 14 sauts/10 minutes and 103 ± 10 sauts/10 minutes.

The record behind these values is EP0676203A1, “Pharmaceutical compositions of antiglucocorticoid compounds for treating or preventing symptoms of spontaneous or narcotic-induced withdrawal” (ROUSSEL UCLAF, priority 1994, dated 1995).
